Data set [1] in a line: Concentration of reactive species in plasma-treated hydrogel compositions. It is filed as physicochemical. Conditions: plasma treatment 180 seconds, concentration in the material. The text has this: The RONS concentration is quantified either using the AR/HRP reagent method or the Griess reagent method for H2O2 and NOi, respectively. Also, plastic strips with test paper which allow quantification of H2O2 based on a redox reaction and NOi, also using the Griess reagent may be used when a hydrogel is used and the protein solution causes interferences with the AR/HRP reagent method or the Griess reagent method. These two methods give equivalent results.
A 50/50 blend of 0.5 weight % alginate and 2 weight % gelatin solutions were prepared (final concentration of 0.25% wt alginate and 1% wt gelatin). The mixture of alginate/gelatin was prepared is by vortexing in a ratio 1:1, 2% wt gelatin with 0.5% wt alginate for 2 minutes. Gelatin in powder is mixed with MilliQ water at 37° C. using magnetic stirring for 2 hours to obtain a 2% wt gelatin gel. 0.5% alginate was prepared by mixing alginate powder with MilliQ water using a SpeedMixer™ DAC 150.1 FVZ-K (SpeedMixer™, Germany) at 3500 r.p.m. for 15 min. The 0.25% wt alginate and 1% wt gelatin aqueous mixture was treated with an atmospheric pressure plasma jet kINPen IND® (Neoplas, Germany) operating with Argon to generate plasma. Treatment conditions: 1 Umin gas flow, 10 mm nozzle distance, and 180 seconds treatment. Treatment performed in 200 μL of mixture in a 96-well plate. […]

The next data set concerns 143.6 sarcospheres. The data set is described as follows: Sarcosphere formation (cancer stem cells), 143.B. Conditions: 143.6 cells; treated at day 3 for 7 days; PTM 5 and 20 min, S3I-201 100 μM. It is filed as cell-based, human. On the procedure:
(§1) FIGS. 7A-7C. Synergic effect of the combined therapy on sarcosphere number reduction. The (A) MG-63 sarcospheres and (B) 143.6 sarcospheres formed were scored (size […]) and counted. Data represent the number of sarcospheres formed as mean and standard deviation of n=6 independent experiments (*p<0.01; **p<0.001; ****p<0.0001 one-way ANOVA). (C) Concentration of NO2- and H2O2 in micromolar concentration in PTM 5, 10 or 20 min.
(§2) Osteosarcoma cells MG-63 and 143.B were cultured in sarcosphere-forming conditions (Cancer Stem Cell (CSC) isolation standard method) for 3 days and then were incubated for another 7 days in contact with PTM according to the following parameters: Helium flow rate: 1 L/min; Gap between APPJ nozzle and CSC medium surface: 10 mm; Treatment times: between 5 and 20 minutes. The CSC Medium was DMEM/F-12 supplemented with GlutaMAX™ (1X; Gibco™, cat.no 10565018, Carlsbad, CA, USA), B-27 Supplement (1:50; Life Technologies), Heparin (1:1000; Sigma), human bEGF (20 ng/ml), human bFGF (10 ng/ml; GoldBio) and sodium pyruvate. The sarcospheres were treated at day 3 with PTM (5 and 20 min), with S3I-201 (100 μM) or with the combination of both for 7 days more.

The test system of a further data set is MG-63 sarcospheres. Briefly: Sarcosphere formation (cancer stem cells), MG-63. It is filed as cell-based. Conditions: treated at day 3 for 7 days, PTM 5 and 20 min, S3I-201 100 μM. On the procedure: as §1, §2
In a further data set the test system is osteosarcoma cell lines. Conditions: in vitro, cited from earlier work.
For data set [2], the system named is human 143B osteosarcoma cells. The data set is described as follows: Murine orthotopic osteosarcoma model, tumor volume. It is filed as in vivo. Conditions: nude mice, tibia; daily para-tumoral 100 μL PTM—20 min; 5 mg/kg S3I-201 orally three times per week; versus control. The method, then:
FIG. 8. […] Tumor volume of the different groups at final day (when tumors reach 1000 mm^3) . The one-way ANOVA was performed to determine the statistical significance between control and treated groups.
To investigate the role PTM in combination with S3I-201 in osteosarcoma disease development, we used a murine orthotopic osteosarcoma model in which human 143B osteosarcoma cells are injected into the tibia of immunodeficient mice. All in vivo tumor experiments were performed with female nude mice (NMRI-Foxn1 nu/nu mice from Janvier Labs). For orthotopic primary tumor growth, 50,000 cells were injected into the right tibia of 7 weeks old mice under isoflurane anaesthesia. Mice received a daily para-tumoral injection of 100 μL of PTM—20 min or 5 mg/kg S3I-201 (orally, dissolved in corn oil) three times per week, or a combination of both treatments. In parallel, control group received a daily para-tumoral injection of Ringer's Saline or 200 μL corn oil orally. Primary tumors were detected and quantified by bioluminescent in vivo imaging five days day after cell injection and subsequently once a week until the tumors reached the study endpoint (termination criterion: primary tumor total flux>[…] photons/s). […] The one-way ANOVA was performed to determine the statistical significance between control and treated groups.

Data on 2 compounds can be found in US20230414546A1, “Combined Therapy Against Cancer” (UNIVERSITAT POLITÈCNICA DE CATALUNYA, priority 2020, published 2023).

Turning to Water, in data set [1], the “H2O2” value is listed as 10.3 mg/L and the “NO2−” value is on record as 2.6 mg/L.
Regarding `Cc1ccc(S(=O)(=O)OCC(=O)Nc2ccc(C(=O)O)c(O)c2)cc1` [S3I-201], the “number / growth of sarcospheres at day 10” value in the data set with 143.6 sarcospheres and with MG-63 sarcospheres was “significantly reduced” throughout. Also, the apoptosis result in the data set with osteosarcoma cell lines (caspase-3 pathway) is listed as “apoptosis enhancement via the caspase-3 pathway”. The “cell growth and colony formation” value in the data set on osteosarcoma cell lines was “significant inhibition of cell growth and colony formation”. The “tumor volume at final day” value in data set [2] is “display a tumor volume in a similar way that control”.
